Measured values as given in ChEMBL document CHEMBL5244279, “Perspectives on SARS-CoV-2 Main Protease Inhibitors” (J Med Chem, 2021).

How the values were obtained:
[1] = molecular target: T1, Replicase polyprotein 1ab (Severe acute respiratory syndrome coronavirus 2, UniProt P0DTD1); assay: Inhibition of SARS CoV-2 Main protease using MCA-AVLQSGFR-Lys(DNP)-Lys-NH2 peptide as substrate by fluorescence based analysis
[2] = Inhibition of SARS CoV N-terminal his-tagged Main protease using Dabcyl-KTSAVLQSGFRKME-Edan peptide as substrate by fluorescence based analysis; set-up: species or system Severe acute respiratory syndrome-related coronavirus
[3] = Binding affinity to SARS CoV N-terminal his-tagged Main protease using Dabcyl-KTSAVLQSGFRKME-Edan peptide as substrate by fluorescence based analysis; set-up: species or system Severe acute respiratory syndrome-related coronavirus
SARS-CoV-2 [4] = format: functional, organism-based, Vero E6; details: Severe acute respiratory syndrome coronavirus 2, Vero C1008
[5] = Cytotoxicity against cat CRFK cells assessed as reduction of cell viability; format: toxicity, cell-based, Felis catus
[6] = Cytotoxicity against mouse L929 cells assessed as reduction of cell viability; format: toxicity, cell-based
[7] = Cytotoxicity against human Huh-7 cells assessed as reduction of cell viability; format: toxicity, cell-based
SARS-CoV-2 [8] = format: functional, organism-based, Vero E6; details: Severe acute respiratory syndrome coronavirus 2, strain 107, Vero C1008
[9] = molecular target: T1, Replicase polyprotein 1ab; assay: Inhibition of SARS CoV-2 Main protease incubated for 10 min by FRET assay

## Cc1ccc(-n2sc3ccccc3c2=O)cc1
[1]
  IC50: 330 nM

## O=C(NCc1ccco1)c1ccc(-n2sc3ccccc3c2=O)cc1
[1]
  IC50: 380 nM

## CCCNC(=O)c1ccc(-n2sc3ccccc3c2=O)cc1
[1]
  IC50: 230 nM

## Cn1sc2ccccc2c1=O
[1]
  IC50: 780 nM

## O=C(Oc1ccc(S(=O)(=O)c2ccc(OC(=O)C(Cl)=C(Cl)Cl)cc2)cc1)C(Cl)=C(Cl)Cl
[2]
  IC50: 900 nM

## CCN(CC)c1ccc(C(=O)On2nnc3ccccc32)cc1
[3]
  Ki: 11.1 nM

## C=CCn1sc2ccccc2c1=O
[1]
  IC50: 630 nM

## O=c1[nH]sc2ccccc12
[1]
  IC50: 660 nM

## CC(C)Cn1sc2ccccc2c1=O
[1]
  IC50: 480 nM

## O=C(O)c1ccc(-n2[se]c3ccccc3c2=O)cc1
[1]
  IC50: 130 nM

## COC(=O)c1ccc(-n2sc3ccccc3c2=O)cc1
[1]
  IC50: 360 nM

## O=C(O)Cn1[se]c2ccccc2c1=O
[1]
  IC50: 410 nM

## Nc1ccccc1-n1sc2ccccc2c1=O
[1]
  IC50: 130 nM

## CC(C)[C@H](NC(=O)[C@H](C)NC(=O)OCc1ccccc1)C(=O)N[C@@H](Cc1ccccc1)[C@@H](O)[C@H](O)[C@H](Cc1ccccc1)NC(=O)[C@@H](NC(=O)[C@H](C)NC(=O)OCc1ccccc1)C(C)C
[2]
  Ki: 600 nM

## O=c1c2ccccc2sn1CCO
[1]
  IC50: 410 nM

## O=c1c2ccccc2sn1-c1ccccc1
[1]
  IC50: 490 nM

## O=C(O)CCn1[se]c2ccccc2c1=O
[1]
  IC50: 350 nM

## O=C(On1nnc2ccccc21)c1cc2ccccc2[nH]1
[3]
  Ki: 12.3 nM

## O=C[C@H](C[C@@H]1CCNC1=O)NC(=O)[C@H](Cc1ccccc1)NC(=O)/C=C/c1ccc(Cl)cc1F
SARS-CoV-2 [4]
  IC50: 200 nM

## O=c1c2ccccc2[se]n1CCN1CCOCC1
[1]
  IC50: 240 nM

## O=c1c2ccccc2[se]n1CCO
[1]
  IC50: 650 nM

## CC(C)C[C@H](NC(=O)OCc1ccccc1)C(=O)N[C@H](C=O)C[C@@H]1CCNC1=O
[5]
  CC50: […]
[6]
  CC50: […]
[7]
  CC50: […]
SARS-CoV-2 [4]
  IC50: 70 nM

## CC(C)C[C@H](NC(=O)OCC1CCC(F)(F)CC1)C(=O)N[C@H](C=O)C[C@@H]1CCNC1=O
[5]
  CC50: > 100000 nM
[6]
  CC50: > 100000 nM
[7]
  CC50: > 100000 nM

## CN(C)c1ccc(/C=C/C(=O)N[C@@H](Cc2ccccc2)C(=O)N[C@H](C=O)C[C@@H]2CCNC2=O)cc1
SARS-CoV-2 [4]
  IC50: 500 nM

## O=c1c2ccccc2sn1Cc1ccco1
[1]
  IC50: 110 nM
  Ki: 78 nM

## CC(C)C[C@H](NC(=O)/C=C/c1ccccc1)C(=O)N[C@H](C=O)C[C@@H]1CCNC1=O
SARS-CoV-2 [4]
  IC50: 830 nM

## Nc1ccccc1C(=O)On1nnc2ccccc21
[3]
  Ki: 19.5 nM

## O=C[C@H](C[C@@H]1CCNC1=O)NC(=O)[C@@H]1[C@H]2CCC[C@H]2CN1C(=O)CCc1cc(F)cc(F)c1
SARS-CoV-2 [8]
  EC50: 5630 nM

## O=C[C@H](C[C@@H]1CCNC1=O)NC(=O)[C@@H]1[C@H]2CCC[C@H]2CN1C(=O)COc1ccc(Cl)c(Cl)c1
SARS-CoV-2 [8]
  EC50: 830 nM
[9]
  IC50: 30 nM

## CC(C)C[C@H](NC(=O)OC1CCCCC1)C(=O)N[C@H](C=O)C[C@@H]1CCNC1=O
[5]
  CC50: > 100000 nM
[6]
  CC50: > 100000 nM
[7]
  CC50: > 100000 nM
SARS-CoV-2 [4]
  IC50: 3900 nM

## COc1ccc(OCC(=O)N2C[C@H]3[C@@H]([C@H]2C(=O)N[C@H](C=O)C[C@@H]2CCNC2=O)C3(C)C)cc1OC
SARS-CoV-2 [8]
  EC50: 1730 nM
[9]
  IC50: 14.5 nM

## CC1(C)[C@@H]2[C@@H](C(=O)N[C@H](C=O)C[C@@H]3CCNC3=O)N(C(=O)COc3ccc(F)c(F)c3)C[C@@H]21
SARS-CoV-2 [8]
  EC50: 5570 nM
[9]
  IC50: 13.2 nM

## CNc1ccc(C(=O)On2nnc3ccccc32)cc1
[3]
  Ki: 12.1 nM

## CC(C)(C)OC(=O)NCn1[se]c2ccccc2c1=O
[1]
  IC50: 330 nM

## O=C(On1nnc2ccccc21)c1ccc2[nH]cnc2c1
[3]
  Ki: 22.9 nM

## CC1(C)[C@@H]2[C@@H](C(=O)N[C@H](C=O)C[C@@H]3CCNC3=O)N(C(=O)COc3cc(F)cc(F)c3)C[C@@H]21
SARS-CoV-2 [8]
  EC50: 1640 nM
[9]
  IC50: 18.5 nM

## O=C[C@H](C[C@@H]1CCNC1=O)NC(=O)[C@@H]1[C@H]2CCC[C@H]2CN1C(=O)c1cccnc1
[9]
  IC50: 748 nM
